Measured values as given in patent US20120184542A1, “PYRIDO PYRIMIDINES” (priority 2011, published 2012).
Structures can show the parent of a compound that is named as a salt. Where two headings read alike, the source gives them in different places.

Legend:
Human DYRK1A = target: T1, Human DYRK1A (Homo sapiens, UniProt Q13627); experiment: DYRK1A Kinase TR-FRET (IMAP-Tb) Assay; assay type: biochemical; settings: for inhibition at 10 µM: read-out: % inhibition of DYRK1A at 10 μM test compound concentration; for IC50: TR-FRET (IMAP-Tb), ATP 70 μM, 37° C. 60 minutes, read-out: Enzyme IC50 (μM) DYRK1A
T1 construct: purchased Invitrogen PV3997
From the text: The kinase TR-FRET (IMAP-Tb) assay uses a fluorescence labeled substrate peptide in the kinase reaction. Upon phosphorylation by the kinase, phosphopeptide is produced, which will be detected by the binding solution provided in IMAP TR-FRET binding kit. After the completion of the kinase reaction, the reaction will be stopped by adding the binding solution containing terbium tracer. This tracer is immobilized on the surface of the IMAP beads, which also contain metal ions on the beads that bind to the phospho-groups of the products. Thus the phosphorylated product of the reaction can enter into close proximity to the tracer, producing resonance energy transfer. Due to the long lifetime of terbium (Tb) fluorescence the detection can be run in time resolved mode, which virtually eliminates fluorescence interference from assay components or compounds.
The TR-FRET signal measurement from this assay, given as an IC50 measurement, is a measure of a test compound's ability to interfere with the phosphorylation of the peptide substrate, that is it inhibits the phosphorylation of the substrate peptide by DYRK1A, and is thus a measure of the test compound's ability to inhibit the activity of DYRK1A.
• 1. Human DYRK1A: from Invitrogen. Part #PV3997 • 2. Substrate Peptide: […] • 3. IMAP TR-FRET IPP Explorer Kit: from Molecular Devices. Part #R8157 • 4. Kinase Assay Buffer (KAB): 10 mM HEPES pH 7.0, 50 mM NaCl, 5 mM MgCl2, 1 mM DTT, 1 mM NaVO4, 200 μg/mL BSA (0.02%) • 5. Assay Plate: Remp polypropylene clear 384-well microplate. […] Detection Plate: Costa black 384-well microplate.
• 1. Transfer 1.5 μL of 20× compound solution to each well of an assay plate. • 2. Add to each well 22.5 μL of KAB Buffer. • 3. Add to each well 3 μL of the solution of DYRK1A and ATP. […] Add to each well 3 μL of the substrate peptide. The assay concentration is 1.0 μM • 5. Incubate the assay plates at 37° C. for 60 minutes. • 6. Add 18 μL of Detection Solution (1:800 diluted Progress bead stock, 1:400 diluted Tb stock, 80% Buffer A, and 20% Buffer B) into each well of detection plates. • 7. Transfer 6 μL of assay solution from the assay plate to the detection plate. • 8. Shake detection plates for 30 minutes. • 9. Read plates in Envision with wavelength set at excitation 340 nm for Tb, emission 490 nm, and […].

Human DYRK1B = target: T2, Human DYRK1B (Homo sapiens, UniProt Q9Y463); experiment: DYRK1B Kinase TR-FRET (IMAP-Tb) Assay; assay type: biochemical; settings: for inhibition at 10 µM: read-out: % inhibition of DYRK1B at 10 μM test compound concentration; for IC50: TR-FRET (IMAP-Tb), ATP 70 μM, 37° C. 60 minutes
T2 construct: purchased Invitrogen PR8350B (former PV4649)

[1] = read-out: Enzyme IC50 (μM) DYRK1B

T2 sequence (Q9Y463 whole entry): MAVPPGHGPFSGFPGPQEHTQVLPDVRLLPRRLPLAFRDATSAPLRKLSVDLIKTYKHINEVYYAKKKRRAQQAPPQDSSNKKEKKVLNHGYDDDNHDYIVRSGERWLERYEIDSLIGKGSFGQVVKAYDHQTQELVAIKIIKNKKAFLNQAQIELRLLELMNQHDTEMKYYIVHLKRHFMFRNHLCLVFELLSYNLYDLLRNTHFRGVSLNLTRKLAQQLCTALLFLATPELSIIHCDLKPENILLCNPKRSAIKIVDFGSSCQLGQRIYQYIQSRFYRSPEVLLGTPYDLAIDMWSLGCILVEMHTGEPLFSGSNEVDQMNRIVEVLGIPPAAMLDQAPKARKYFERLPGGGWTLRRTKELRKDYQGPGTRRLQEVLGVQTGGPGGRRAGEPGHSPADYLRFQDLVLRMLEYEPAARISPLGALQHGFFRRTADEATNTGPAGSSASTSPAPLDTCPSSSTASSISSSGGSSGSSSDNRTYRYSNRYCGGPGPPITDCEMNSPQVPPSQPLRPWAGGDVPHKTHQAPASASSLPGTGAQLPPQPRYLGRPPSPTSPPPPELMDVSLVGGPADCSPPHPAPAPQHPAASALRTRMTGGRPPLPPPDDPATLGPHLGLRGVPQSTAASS

Compound	IC50 (Human DYRK1A) [µM]	IC50 (Human DYRK1B; [1]) [µM]	IC50 (Human DYRK1B; Enzyme IC50 (μM) DYRK1B) [µM]	also measured
CC(NC(=O)c1ccc(Cl)c(NC(=O)c2cc3cnc(N4CCOCC4)nc3[nH]c2=O)c1)c1cccc(Cl)c1 (racemic) [Example 143, 2-Morpholin-4-yl-7-oxo-7,8-dihydro-pyrido[2,3-d]pyrimidine-6-carboxylic acid {2-chloro-5-[1-(3-chloro-phenyl)-ethylcarbamoyl]-phenyl}-amide]	–	–	–	inhibition at 10 µM (Human DYRK1A): 57%; inhibition at 10 µM (Human DYRK1B): 24%
COc1ncc2cc(C(=O)Nc3cc(C(=O)O)ccc3Cl)c(=O)[nH]c2n1 [Example 22, 4-Chloro-3-[(2-methoxy-7-oxo-7,8-dihydro-pyrido[2,3-d]pyrimidine-6-carbonyl)-amino]-benzoic acid]	0.601	2.73	–	–
COc1ncc2cc(C(=O)Nc3cc(C(=O)OCc4ccccc4)ccc3C)c(=O)[nH]c2n1 [Example 26, 3-[(2-Methoxy-7-oxo-7,8-dihydro-pyrido[2,3-d]pyrimidine-6-carbonyl)-amino]-4-methyl-benzoic acid benzyl ester]	0.323	0.496	–	–
COc1ncc2cc(C(=O)Nc3cc(C(=O)NCc4ccccc4)ccc3C)c(=O)[nH]c2n1 [Example 27, 2-Methoxy-7-oxo-7,8-dihydro-pyrido[2,3-d]pyrimidine-6-carboxylic acid (5-benzylcarbamoyl-2-methyl-phenyl)-amide]	0.376	2	–	–
COC(=O)c1ccc(C)c(NC(=O)c2cc3cnc(N4CCOCC4)nc3[nH]c2=O)c1 [Example 29, 4-Methyl-3-[(2-morpholin-4-yl-7-oxo-7,8-dihydro-pyrido[2,3-d]pyrimidine-6-carbonyl)-amino]-benzoic acid methyl ester]	0.0859	0.12	–	–
COC(=O)c1ccc(Cl)c(NC(=O)c2cc3cnc(N4CCOCC4)nc3[nH]c2=O)c1 [Example 33, 4-Chloro-3-[(2-morpholin-4-yl-7-oxo-7,8-dihydro-pyrido[2,3-d]pyrimidine-6-carbonyl)-amino]-benzoic acid methyl ester]	0.095	0.128	–	–
COC(=O)c1ccc(Cl)c(NC(=O)c2cc3cnc(N4CCCCC4)nc3[nH]c2=O)c1 [Example 34, 4-Chloro-3-[(7-oxo-2-piperidin-1-yl-7,8-dihydro-pyrido[2,3-d]pyrimidine-6-carbonyl)-amino]-benzoic acid methyl ester]	0.05	0.06	–	–
COC(=O)c1ccc(Cl)c(NC(=O)c2cc3cnc(N4CCNCC4)nc3[nH]c2=O)c1 [Example 37, 4-Chloro-3-[(7-oxo-2-piperazin-1-yl-7,8-dihydro-pyrido[2,3-d]pyrimidine-6-carbonyl)-amino]-benzoic acid methyl ester]	0.468	0.405	–	–
CCOCCN(CCOCC)c1ncc2cc(C(=O)Nc3cc(C(=O)OC)ccc3Cl)c(=O)[nH]c2n1 [Example 40, 3-({2-[Bis-(2-ethoxy-ethyl)-amino]-7-oxo-7,8-dihydro-pyrido[2,3-d]pyrimidine-6-carbonyl}-amino)-4-chloro-benzoic acid methyl ester]	0.208	0.22	–	–
COC(=O)c1ccc(Cl)c(NC(=O)c2cc3cnc(NCCO)nc3[nH]c2=O)c1 [Example 41, 4-Chloro-3-{[2-(2-hydroxy-ethylamino)-7-oxo-7,8-dihydro-pyrido[2,3-d]pyrimidine-6-carbonyl]amino}-benzoic acid methyl ester]	0.0796	0.07	–	–
CCOCCNc1ncc2cc(C(=O)Nc3cc(C(=O)OC)ccc3Cl)c(=O)[nH]c2n1 [Example 42, 4-Chloro-3-{[2-(2-ethoxy-ethylamino)-7-oxo-7,8-dihydro-pyrido[2,3-d]pyrimidine-6-carbonyl]-amino}-benzoic acid methyl ester]	–	–	–	inhibition at 10 µM (Human DYRK1A): 60%; inhibition at 10 µM (Human DYRK1B): 39%
COC(=O)c1ccc(F)c(NC(=O)c2cc3cnc(OC)nc3[nH]c2=O)c1 [Example 43, 4-Fluoro-3-[(2-methoxy-7-oxo-7,8-dihydro-pyrido[2,3-d]pyrimidine-6-carbonyl)-amino]-benzoic acid methyl ester]	9.8	–	–	inhibition at 10 µM (Human DYRK1B): 41%
COc1ncc2cc(C(=O)Nc3cc(C(=O)Nc4ccccc4)ccc3Cl)c(=O)[nH]c2n1 [Example 49, 2-Methoxy-7-oxo-7,8-dihydro-pyrido[2,3-d]pyrimidine-6-carboxylic acid (2-chloro-5-phenylcarbamoyl-phenyl)-amide]	–	–	2.97	–
COc1ncc2cc(C(=O)Nc3cc(C(=O)N(C)Cc4cccc(Cl)c4)ccc3Cl)c(=O)[nH]c2n1 [Example 65, 2-Methoxy-7-oxo-7,8-dihydro-pyrido[2,3-d]pyrimidine-6-carboxylic acid {2-chloro-5-[(3-chloro-benzyl)-methyl-carbamoyl]-phenyl}-amide]	–	–	0.586	–
COc1ncc2cc(C(=O)Nc3cc(C(=O)NCCc4cccc(Cl)c4)ccc3Cl)c(=O)[nH]c2n1 [Example 71, 2-Methoxy-7-oxo-7,8-dihydro-pyrido[2,3-d]pyrimidine-6-carboxylic acid {2-chloro-5-[2-(3-chloro-phenyl)-ethylcarbamoyl]-phenyl}-amide]	–	–	0.135	–
Cc1ncc2cc(C(=O)Nc3cc(C(=O)NC(CCN)c4ccccc4)ccc3Cl)c(=O)[nH]c2n1 (centres unmarked) [Example 112, N-(5-(3-Amino-1-phenylpropylcarbamoyl)-2-chlorophenyl)-2-methyl-7-oxo-7,8-dihydropyrido[2,3-d]pyrimidine-6-carboxamide hydrochloride]	–	–	0.018	–
CN1CCN(CCCNc2ncc3cc(C(=O)Nc4cc(C(=O)NC(CCN)c5ccccc5)ccc4Cl)c(=O)[nH]c3n2)CC1 (centres unmarked) [Example 120, N-(5-(3-Amino-1-phenylpropylcarbamoyl)-2-chlorophenyl)-2-(3-(4-methylpiperazin-1-yl)propylamino)-7-oxo-7,8-dihydropyrido[2,3-d]pyrimidine-6-carboxamide]	–	–	< 0.0046	–
COc1ncc2cc(C(=O)Nc3cc(C(=O)N[C@@H](CCN)c4cccc(Cl)c4)ccc3Cl)c(=O)[nH]c2n1 [Example 136, 2-Methoxy-7-oxo-7,8-dihydro-pyrido[2,3-d]pyrimidine-6-carboxylic acid {5-[(S)-3-amino-1-(3-chloro-phenyl)-propylcarbamoyl]-2-chloro-phenyl}-amide]	–	–	2.55	–
Cc1ncc2cc(C(=O)Nc3cc(C(=O)N[C@H](CCN)c4ccccc4)ccc3Cl)c(=O)[nH]c2n1 [Example 168, (R)—N-(5-(3-Amino-1-phenylpropylcarbamoyl)-2-chlorophenyl)-2-methyl-7-oxo-7,8-dihydropyrido[2,3-d]pyrimidine-6-carboxamide hydrochloride]	–	–	< 0.0046	–
COc1nc(C)c2cc(C(=O)Nc3cc(C(=O)NC(CCN)c4ccccc4)ccc3Cl)c(=O)[nH]c2n1 (centres unmarked) [Example 169, N-(5-(3-Amino-1-phenylpropylcarbamoyl)-2-chlorophenyl)-2-methoxy-4-methyl-7-oxo-7,8-dihydropyrido[2,3-d]pyrimidine-6-carboxamide2,2,2-trifluoroacetate]	–	–	0.101	–
COc1ncc2cc(C(=O)Nc3cc(C(=O)NC(CCCCN)c4ccccc4)ccc3Cl)c(=O)[nH]c2n1 (centres unmarked) [Example 186, N-(5-(5-Amino-1-phenylpentylcarbamoyl)-2-chlorophenyl)-2-methoxy-7-oxo-7,8-dihydropyrido[2,3-d]pyrimidine-6-carboxamide]	–	–	1.01	–
COc1ncc2cc(C(=O)Nc3cc(C(=O)NC(CCCN)c4ccccc4)ccc3Cl)c(=O)[nH]c2n1 (centres unmarked) [Example 189, N-(5-(4-Amino-1-phenylbutylcarbamoyl)-2-chlorophenyl)-2-methoxy-7-oxo-7,8-dihydropyrido[2,3-d]pyrimidine-6-carboxamide]	–	–	0.0214	–
COc1ncc2cc(C(=O)Nc3cc(C(=O)NC(CCN)C4CCCCC4)ccc3Cl)c(=O)[nH]c2n1 (centres unmarked) [Example 193, N-(5-(3-Amino-1-cyclohexylpropylcarbamoyl)-2-chlorophenyl)-2-methoxy-7-oxo-7,8-dihydropyrido[2,3-d]pyrimidine-6-carboxamide 2,2,2-trifluoroacetate]	–	–	0.615	–
